From ChEMBL document CHEMBL5360521, “A chemical perspective on the modulation of TEAD transcriptional activities: Recent progress, challenges, and opportunities” (Eur J Med Chem, 2022)

Assays:
[1] = system: NCI-H226; assay: Antiproliferative activity against human NCI-H226 cells assessed as cells growth inhibition incubated for 144 hrs by CCK-8 assay; assay type: functional, cell-based; conditions: NCI-H226, 144 h
[2] = system: MSTO-211H; assay: Antiproliferative activity against human MSTO-211H cells assessed as cell growth inhibition incubated for 144 hrs by CCK-8 assay; assay type: functional, cell-based
[3] = Antiproliferative activity against human Mero-14 cells assessed as cell growth inhibition incubated for 144 hrs by CCK-8 assay; assay type: functional, cell-based; conditions: Mero-14, 144 h
[4] = molecular target: Transcriptional enhancer factor TEF-1 (Homo sapiens, UniProt P28347); assay: Inhibition of N-terminal 6xHis-tagged human TEAD1 auto palmitoylation (209 to 426 residues) expressed in Escherichia coli BL21 (DE3) cells by ABPP assay
[5] = molecular target: Transcriptional enhancer factor TEF-5 (Homo sapiens, UniProt Q99594); assay: Inhibition of N-terminal 6xHis-tagged human TEAD3 auto palmitoylation (209 to 426 residues) expressed in Escherichia coli BL21 (DE3) cells by ABPP assay
[6] = Inhibition of TEAD auto palmitoylation (unknown origin); set-up: species or system Homo sapiens
[7] = Inhibition of YAP/TEAD in HEK293 cells by Split Gaussia Luciferase Assay; assay type: cell-based, HEK293T; conditions: Homo sapiens, HEK-293T
[8] = system: NCI-H226; assay: Antitumor activity against human NCI-H226 cells xenografted BALB/c mouse assessed as tumor growth inhibition at 10 mg/kg, po qd for 28 days relative to control; assay type: functional; conditions: NCI-H226, 672 h, time 28 day, read-out: TGI
[9] = system: NCI-H226; assay: Antitumor activity against human NCI-H226 cells xenografted BALB/c mouse assessed as tumor growth inhibition at 2 mg/kg, po qd for 28 days relative to control; assay type: functional; conditions: NCI-H226, 672 h, time 28 day, read-out: TGI

Chain of Transcriptional enhancer factor TEF-5 (Q99594 whole entry, the tested form may be a part): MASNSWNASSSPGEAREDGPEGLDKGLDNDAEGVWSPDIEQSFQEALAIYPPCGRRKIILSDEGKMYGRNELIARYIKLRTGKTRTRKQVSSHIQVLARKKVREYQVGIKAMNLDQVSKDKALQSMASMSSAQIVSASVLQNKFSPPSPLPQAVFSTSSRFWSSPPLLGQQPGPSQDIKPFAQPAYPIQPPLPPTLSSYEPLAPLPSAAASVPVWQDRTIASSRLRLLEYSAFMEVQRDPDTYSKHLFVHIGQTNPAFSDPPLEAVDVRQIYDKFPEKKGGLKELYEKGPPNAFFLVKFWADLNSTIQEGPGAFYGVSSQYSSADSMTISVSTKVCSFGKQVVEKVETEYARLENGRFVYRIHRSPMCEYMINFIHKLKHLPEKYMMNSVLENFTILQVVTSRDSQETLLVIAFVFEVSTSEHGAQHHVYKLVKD
Chain of Transcriptional enhancer factor TEF-1 (P28347 whole entry, the tested form may be a part): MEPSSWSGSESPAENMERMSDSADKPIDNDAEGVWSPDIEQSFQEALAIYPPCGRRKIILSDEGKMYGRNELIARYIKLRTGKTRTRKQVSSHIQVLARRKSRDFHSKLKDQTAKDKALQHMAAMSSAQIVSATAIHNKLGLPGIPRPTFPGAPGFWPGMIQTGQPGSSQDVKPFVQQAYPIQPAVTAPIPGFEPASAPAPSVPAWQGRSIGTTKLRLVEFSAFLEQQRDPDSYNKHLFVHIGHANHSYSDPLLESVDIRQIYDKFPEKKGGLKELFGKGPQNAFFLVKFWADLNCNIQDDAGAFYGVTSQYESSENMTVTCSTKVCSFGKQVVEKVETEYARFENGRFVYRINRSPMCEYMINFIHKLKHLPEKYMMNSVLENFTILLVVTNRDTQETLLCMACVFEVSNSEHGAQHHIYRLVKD

Structure (SMILES): C=CC(=O)Nc1ccc(C)c(Oc2ccc(Cl)cc2)c1
- IC50 [1]: < 100 nM
- IC50 [2]: < 100 nM
- IC50 [3]: < 100 nM

Structure (SMILES): C=CC(=O)N1CCC(CCOc2ccccc2)CC1
- IC50 [4]: 580 nM
- IC50 [5]: 610 nM

Structure (SMILES): CNS(=O)(=O)c1ccc(NCc2ccc(C(F)(F)F)cc2)c(-c2cn(C)cn2)c1
- EC50 [6]: 25 nM

Structure (SMILES): C=CC(=O)N1CCC(C)(Nc2cccc(C(F)(F)F)c2)C1 (centres undefined)
- IC50 [7]: 800 nM

Structure (SMILES): C=C(F)C(=O)N1CC(n2nc(-c3ccc(C(F)(F)F)cc3)c3cccnc32)C1
- inhibition in vivo at 10 mg/kg [8]: 101%

Structure (SMILES): C=C(F)C(=O)N1CC(n2nc(-c3ccc(C(F)(F)F)nc3)c3cccnc32)C1
- inhibition in vivo at 2 mg/kg [9]: 67%
